Legend:
Experiment in all cases: relative viability (nuclei count vs DMSO), 5 days (fraction); higher = more cells survive
[1] = compound: CC(C)C[C@@H](C(=O)N[C@H](C(=O)OC1CCCC1)c1ccccc1)[C@H](O)C(=O)NO [Tosedostat] + CC(=O)Nc1cccc(-n2c(=O)n(C3CC3)c(=O)c3c(Nc4ccc(I)cc4F)n(C)c(=O)c(C)c32)c1 [Trametinib] (partner 0.02 µM)
Outline: (§1)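 Values are medians from duplicate plates. Each reflects relative viability, defined as the nuclei count of treated wells over that of vehicle wells. Lung cancer cell lines in 1536-well plates were pin-tool dosed one day after seeding with one drug alone or with a fixed anchor-drug dose plus five library-drug doses (not always all listed) in √10 steps, then fixed, stained and imaged at 4× after 5 days.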

[2] = compound: CC(C)C[C@@H](C(=O)N[C@H](C(=O)OC1CCCC1)c1ccccc1)[C@H](O)C(=O)NO [Tosedostat] + CS(=O)(=O)N1CCN(Cc2cc3nc(-c4cccc5[nH]ncc45)nc(N4CCOCC4)c3s2)CC1 [Pictilisib] (partner 1 µM)
Outline: as §1

[3] = compound: CC(C)C[C@@H](C(=O)N[C@H](C(=O)OC1CCCC1)c1ccccc1)[C@H](O)C(=O)NO [Tosedostat] + NC(=O)Nc1cc(-c2cccc(F)c2)sc1C(=O)N[C@H]1CCCNC1 [AZD7762] (partner 0.2 µM)
Outline: as §1

[4] = compound: CC1=NN=C(O1)C2=NN=C(C=C2)N3CCC(CC3)OC4=C(C=CC(=C4)F)Cl + N=C(N)NC(=N)NCCc1ccccc1 [Phenformin] (partner 250 µM)
Outline: as §1

Cell Line: NCI-H2085
- relative viability ([1]; first compound 0.06325 µM): 0.436
- relative viability ([1]; first compound 0.2 µM): 0.677
- relative viability ([1]; first compound 0.6325 µM): 0.403
- relative viability ([1]; first compound 2 µM): 0.637
- relative viability ([2]; first compound 0.02 µM): 0.445
- relative viability ([2]; first compound 0.06325 µM): 0.518
- relative viability ([2]; first compound 0.2 µM): 0.512
- relative viability ([2]; first compound 0.6325 µM): 0.593
- relative viability ([2]; first compound 2 µM): 0.481
- relative viability ([3]; first compound 0.06325 µM): 1.03
- relative viability ([3]; first compound 0.2 µM): 1.05
- relative viability ([3]; first compound 0.6325 µM): 0.973
- relative viability ([3]; first compound 2 µM): 0.965
- relative viability ([4]; first compound 0.253 µM): 0.676
- relative viability ([4]; first compound 2.53 µM): 0.629
- relative viability ([4]; first compound 8 µM): 0.565

Cell Line: CAL-12T
- relative viability ([1]; first compound 0.02 µM): 0.393
- relative viability ([1]; first compound 0.06325 µM): 0.364
- relative viability ([1]; first compound 0.2 µM): 0.339
- relative viability ([1]; first compound 0.6325 µM): 0.394
- relative viability ([1]; first compound 2 µM): 0.325
- relative viability ([2]; first compound 0.02 µM): 0.471
- relative viability ([2]; first compound 0.06325 µM): 0.417
- relative viability ([2]; first compound 0.2 µM): 0.422
- relative viability ([2]; first compound 0.6325 µM): 0.484
- relative viability ([2]; first compound 2 µM): 0.423
- relative viability ([3]; first compound 0.02 µM): 0.703
- relative viability ([3]; first compound 0.06325 µM): 0.577
- relative viability ([3]; first compound 0.2 µM): 0.593
- relative viability ([3]; first compound 0.6325 µM): 0.678
- relative viability ([3]; first compound 2 µM): 0.629
- relative viability ([4]; first compound 0.253 µM): 0.585
- relative viability ([4]; first compound 0.8 µM): 0.519
- relative viability ([4]; first compound 2.53 µM): 0.488
- relative viability ([4]; first compound 8 µM): 0.416

Cell Line: NCI-H1623
- relative viability ([4]; first compound 0.253 µM): 0.568
- relative viability ([4]; first compound 0.8 µM): 0.545
- relative viability ([4]; first compound 2.53 µM): 0.627
- relative viability ([4]; first compound 8 µM): 0.574

Cell Line: HCC-44
- relative viability ([1]; first compound 0.02 µM): 1.21
- relative viability ([1]; first compound 0.06325 µM): 1.11
- relative viability ([1]; first compound 0.2 µM): 1.09
- relative viability ([1]; first compound 0.6325 µM): 1.13
- relative viability ([1]; first compound 2 µM): 1.17
- relative viability ([2]; first compound 0.02 µM): 0.666
- relative viability ([2]; first compound 0.06325 µM): 0.689
- relative viability ([2]; first compound 0.2 µM): 0.527
- relative viability ([2]; first compound 0.6325 µM): 0.695
- relative viability ([2]; first compound 2 µM): 0.378
- relative viability ([3]; first compound 0.02 µM): 1.08
- relative viability ([3]; first compound 0.06325 µM): 1
- relative viability ([3]; first compound 0.2 µM): 1.03
- relative viability ([3]; first compound 0.6325 µM): 1.06
- relative viability ([3]; first compound 2 µM): 0.965
- relative viability ([4]; first compound 0.253 µM): 0.267
- relative viability ([4]; first compound 0.8 µM): 0.167
- relative viability ([4]; first compound 2.53 µM): 0.178
- relative viability ([4]; first compound 8 µM): 0.157

Cell Line: EKVX
- relative viability ([1]; first compound 0.02 µM): 0.229
- relative viability ([1]; first compound 0.06325 µM): 0.338
- relative viability ([1]; first compound 0.2 µM): 0.433
- relative viability ([1]; first compound 0.6325 µM): 0.373
- relative viability ([1]; first compound 2 µM): 0.292
- relative viability ([2]; first compound 0.02 µM): 0.45
- relative viability ([2]; first compound 0.06325 µM): 0.423
- relative viability ([2]; first compound 0.2 µM): 0.444
- relative viability ([2]; first compound 0.6325 µM): 0.398
- relative viability ([2]; first compound 2 µM): 0.431
- relative viability ([3]; first compound 0.02 µM): 0.821
- relative viability ([3]; first compound 0.06325 µM): 0.71
- relative viability ([3]; first compound 0.2 µM): 0.747
- relative viability ([3]; first compound 0.6325 µM): 0.761
- relative viability ([3]; first compound 2 µM): 0.657
- relative viability ([4]; first compound 0.253 µM): 0.211
- relative viability ([4]; first compound 0.8 µM): 0.223
- relative viability ([4]; first compound 2.53 µM): 0.236
- relative viability ([4]; first compound 8 µM): 0.227

Cell Line: NCI-H1734
- relative viability ([1]; first compound 0.02 µM): 0.778
- relative viability ([1]; first compound 0.06325 µM): 0.666
- relative viability ([1]; first compound 0.2 µM): 0.664
- relative viability ([1]; first compound 0.6325 µM): 0.502
- relative viability ([1]; first compound 2 µM): 0.572
- relative viability ([2]; first compound 0.02 µM): 0.471
- relative viability ([2]; first compound 0.06325 µM): 0.468
- relative viability ([2]; first compound 0.2 µM): 0.444
- relative viability ([2]; first compound 0.6325 µM): 0.459
- relative viability ([2]; first compound 2 µM): 0.433
- relative viability ([3]; first compound 0.02 µM): 0.614
- relative viability ([3]; first compound 0.06325 µM): 0.535
- relative viability ([3]; first compound 0.2 µM): 0.504
- relative viability ([3]; first compound 0.6325 µM): 0.411
- relative viability ([3]; first compound 2 µM): 0.466
- relative viability ([4]; first compound 0.253 µM): 0.429
- relative viability ([4]; first compound 0.8 µM): 0.32
- relative viability ([4]; first compound 2.53 µM): 0.405
- relative viability ([4]; first compound 8 µM): 0.395

Cell Line: NCI-H1944
- relative viability ([1]; first compound 0.02 µM): 0.422
- relative viability ([1]; first compound 0.06325 µM): 0.396
- relative viability ([1]; first compound 0.2 µM): 0.4
- relative viability ([1]; first compound 0.6325 µM): 0.395
- relative viability ([1]; first compound 2 µM): 0.422
- relative viability ([2]; first compound 0.02 µM): 0.368
- relative viability ([2]; first compound 0.06325 µM): 0.37
- relative viability ([2]; first compound 0.2 µM): 0.363
- relative viability ([2]; first compound 0.6325 µM): 0.352
- relative viability ([2]; first compound 2 µM): 0.356
- relative viability ([3]; first compound 0.02 µM): 0.659
- relative viability ([3]; first compound 0.06325 µM): 0.494
- relative viability ([3]; first compound 0.2 µM): 0.501
- relative viability ([3]; first compound 0.6325 µM): 0.437
- relative viability ([3]; first compound 2 µM): 0.453
- relative viability ([4]; first compound 0.253 µM): 0.183
- relative viability ([4]; first compound 0.8 µM): 0.187
- relative viability ([4]; first compound 2.53 µM): 0.196
- relative viability ([4]; first compound 8 µM): 0.183

Cell Line: NCI-H1792
- relative viability ([1]; first compound 0.02 µM): 0.4
- relative viability ([1]; first compound 0.06325 µM): 0.417
- relative viability ([1]; first compound 0.2 µM): 0.4
- relative viability ([1]; first compound 0.6325 µM): 0.42
- relative viability ([1]; first compound 2 µM): 0.479
- relative viability ([2]; first compound 0.02 µM): 0.282
- relative viability ([2]; first compound 0.06325 µM): 0.279
- relative viability ([2]; first compound 0.2 µM): 0.272
- relative viability ([2]; first compound 0.6325 µM): 0.232
- relative viability ([2]; first compound 2 µM): 0.276
- relative viability ([3]; first compound 0.02 µM): 0.523
- relative viability ([3]; first compound 0.06325 µM): 0.77
- relative viability ([3]; first compound 0.2 µM): 0.606
- relative viability ([3]; first compound 0.6325 µM): 0.644
- relative viability ([3]; first compound 2 µM): 0.586
- relative viability ([4]; first compound 0.253 µM): 0.294
- relative viability ([4]; first compound 0.8 µM): 0.416
- relative viability ([4]; first compound 2.53 µM): 0.264
- relative viability ([4]; first compound 8 µM): 0.384
